A word on the IC50: it is the point on the concentration scale where inhibition reaches its midpoint. A lower IC50 goes with greater potency.

Molecules are shown by their SMILES.

From patent US20200123147A1, “THIAZOLE COMPOUNDS USEFUL AS PRMT5 INHIBITORS” (Bayer Aktiengesellschaft, priority 2017, published 2020) come the findings set out here.

Experiment [1] addresses T1, PRMT5:MEP50 protein complex (Homo sapiens, UniProt O14744).
T1 construct: FLAG (N); made in house; host or cells: Hi5 insect cells
Put plainly: In vitro assay 1: PRMT5 SPA assay ("EAA"). In kind it is biochemical. Conditions: scintillation proximity assay, methylation of biotinylated H4(1-24) peptide, 3H-SAM, 60 min at 22° C. The text has this:
In Vitro Assay 1: PRMT5 SPA Assay (“EAA”)
PRMT5 inhibitory activities of the compounds described in the present invention were quantified using a scintillation proximity assay (SPA) which measures methylation by the enzyme of a synthetic, biotinylated peptide corresponding to the N-terminal sequence of Histone H4 (a.a. 1-24). The peptide of sequence […]-K(Btn)-amide is commercially available (e.g. from Biosyntan) and will be herein referred to as H4(1-24). The PRMT5:MEP50 protein complex used in the assay was produced in house following standard protocols. Briefly, full length PRMT5 and MEP50 constructs respectively tagged with N-terminal FLAG and 6× His sequences were co-expressed in Hi5 insect cells, and the recombinant protein complex was purified by FLAG affinity and size exclusion chromatography.
In a typical assay 11 different concentrations of each compound (0.1 nM, 0.33 nM, 1.1 nM, 3.8 nM, 13 nM, 44 nM, 0.15 μM, 0.51 μM, 1.7 μM, 5.9 μM and 20 μM) were tested in duplicate within the same microtiter plate. To this end, 100-fold concentrated compound solutions (in DMSO) were previously prepared by serial dilution (1:3.4) of 2 mM stocks in a clear low volume 384-well source microtiter plate (Greiner Bio-One), from which 50 nl of compounds were transferred into a white low volume test microtiter plate from the same supplier. Subsequently, 2.5 μL PRMT5 in aqueous assay buffer [20 mM Bicine pH 8.0 (Alfa Aesar), 7.5 mM Tris(2-carboxyethyl) phosphine hydrochloride (TCEP, Sigma), 0.1% (w/v) bovine gamma globuline (BGG, Sigma), 0.002% (v/v) Tween-20 (Sigma)] were added to the compounds in the test plate to a final enzyme concentration of—typically—7.5 nM (this parameter was adjusted depending on the activity of the enzyme lot in order to be within the linear dynamic range of the assay). The samples were then incubated for 15 min at 22° C. to allow pre-equilibration of the putative enzyme-inhibitor complexes before the start of the methylation reaction, which was initiated by the addition of 2.5 μL 2-fold concentrated solution (in assay buffer) of “cold” S-Adenosyl-L-Methionine (SAM, Sigma, final concentration: 0.5 μM), tritiated 3H-SAM (Perkin Elmer, final concentration: 0.5 μM) and H4(1-24) peptide substrate (final concentration: 0.06 μM). The resulting mixture (5 μL final volume) was shortly centrifuged (2 min., 1500 rpm) and incubated at 22° C. during 60 min. Thereupon the reaction was stopped by adding 3 μL of Streptavidin PS SPA imaging beads (Perkin Elmer, final concentration of 0.375 μg/μL) and “cold” SAM (AK Scientific, 250 μM final concentration) for non-specific binding reduction. Plates containing the stopped reaction were sealed with transparent adhesive foil (Perkin Elmer), centrifuged (2 min., 1500 rpm), and further incubated either 1 h at 22° C. or overnight at 4° C. in order to allow the SPA signals to develop. Subsequently, the amount of product was evaluated by measuring the energy transfer from the β-particles emitted by the 3H-labeled substrate to the Europium scintillator co-polymerized in the polystyrene matrix of the PS imaging beads, using the standard settings for this purpose of a Viewlux (Perkin-Elmer) CCD plate imaging device (emission filter 613/55 (IFP).
The resulting scintillation counts were taken as indicator for the amount of methylated peptide per well. The data were normalised using two sets of control wells (typically 16 each) for high—(=enzyme reaction with DMSO instead of test compound=0%=minimum inhibition) and low—(=all assay components without enzyme=100%=maximum inhibition) PRMT5 activity. IC50 values were calculated by fitting the normalized inhibition data to a 4-parameter logistic equation using the “Screener” analysis software from Genedata.
Background: SPA uses beads or plates that emit light when radiolabelled molecules are held near them.

Experiment [2] relates to PRMT5 (histone H4 Arg3 SDMA levels in MDA-MB-468 cells). Nature of the experiment: In vitro assay 2: quantification of SDMA (symmetric dimethylarginine) expression levels (H4 Arg3) in cancer cells, High-Content Analysis. Conditions: Homo sapiens, 72 h, SDMA histone H4 (Arg3) average signal intensity per cell. It is filed as cell-based. The text has this:
In Vitro Assay 2: Quantification of SDMA (Symmetric Dimethylarginine) Expression Levels (H4 Arg3) After Small Molecule Treatment of Cancer Cells
The SDMA-assay based on High-Content Analysis (HCA) enables the biological characterization of compounds inhibiting PRMT5. By this assay, substances are benchmarked on their cellular activity to modulate histone H4 Arg3 levels over broad inhibitor concentration ranges.
Cultivated cells of the human mammary gland tumor cell line MDA-MB-468 (ATCC HTB-132) were plated at a density of 2500 cells per well in a 384-well microtiter plate in 20 μL of Roswell Park Memorial Institute (RPMI) 1640 medium supplemented with 1% (v/v) glutamine, 1% (v/v) penicillin, 1% (v/v) streptomycin and 10% (v/v) fetal calf serum. After pre-incubation at 37° C. overnight, test compo unds solubilized in DMSO were added at various concentrations (0 μM, as well as in the range of 0.005 μM-30 μM; the final concentration of the solvent DMSO was 0.5% (v/v)). Cells were incubated at 37° C. for 72 h in the presence of test compounds. Thereafter, cells were fixed with 4% (v/v) paraformaldehyde in phosphate buffered saline (PBS) at room temperature for 1 h, permeabilized using 0.5% (v/v) Triton X™ 100 in PBS for 15 min and blocked with 1% (v/v) bovine serum albumin (BSA) in PBS for 30 min. In the following, cells were incubated with anti-dimethyl-histone H4 (Arg3) symmetric antibody (Millipore #07-947) at RT for 2 h. After a single washing step with blocking solution, cells were incubated with species-specific fluorescent conjugated secondary antibody Alexa Fluor™ 488 (Jackson Immuno Research #111-546-003) at RT for 2 h.
Image acquisition for cells was carried out using the confocal imaging system OPERA® (PerkinElmer). Images were captured using two channels: Hoechst 33342 stain (DNA) and Alexa Fluor™ 488 (SDMA staining); and were analyzed using the MetaXpress® software (Molecular Devices). Exposure times were chosen for individual experiments to prevent saturation and allow for quantification in the linear range. A minimum of 500 cells in 5 field views were analyzed per well using 10× water immersion objective with a two-fold binning.
The image analysis routine was developed in MetaXpress®. The standardized image-analysis module “Count Nuclei” and the images of the DNA-channel were used for nuclei segmentation. The segmented nuclei were filtered for size, shape and signal intensity to exclude possible apoptotic and non-viable cells along with metaphase nuclei. These phenotypes result in overestimated antibody signals, due to their strong chromatin compaction. For further processing, binary object masks were calculated from the segmented and positively selected nuclei. The binary masks served as templates to be superimposed over the images of the SDMA channel. The SDMA average signal intensity per cell was quantified for every image set. The assay raw data were further analyzed by four parameter logistic regression analysis using Genedata's Assay Analyzer® and Condoseo® software to determine the IC50 value for each tested compound.

T1 sequence (O14744 whole entry, species assumed): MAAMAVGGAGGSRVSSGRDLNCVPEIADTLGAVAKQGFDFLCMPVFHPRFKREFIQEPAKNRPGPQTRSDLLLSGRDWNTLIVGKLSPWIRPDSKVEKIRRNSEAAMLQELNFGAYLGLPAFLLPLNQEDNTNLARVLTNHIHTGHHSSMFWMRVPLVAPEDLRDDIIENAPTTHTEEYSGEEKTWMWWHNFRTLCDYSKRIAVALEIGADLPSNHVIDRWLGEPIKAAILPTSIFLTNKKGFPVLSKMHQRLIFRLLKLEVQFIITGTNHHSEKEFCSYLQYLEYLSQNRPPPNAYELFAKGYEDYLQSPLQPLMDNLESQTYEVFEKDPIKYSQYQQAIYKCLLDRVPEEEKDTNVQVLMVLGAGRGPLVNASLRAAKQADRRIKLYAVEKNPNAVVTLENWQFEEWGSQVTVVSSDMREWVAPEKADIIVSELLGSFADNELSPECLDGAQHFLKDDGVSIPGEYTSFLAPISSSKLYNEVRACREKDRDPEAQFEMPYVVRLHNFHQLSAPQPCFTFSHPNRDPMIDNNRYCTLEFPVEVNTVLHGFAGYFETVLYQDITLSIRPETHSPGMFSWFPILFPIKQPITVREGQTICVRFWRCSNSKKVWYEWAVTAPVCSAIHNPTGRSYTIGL
T1 sequence (Q9BQA1 whole entry partner, species assumed): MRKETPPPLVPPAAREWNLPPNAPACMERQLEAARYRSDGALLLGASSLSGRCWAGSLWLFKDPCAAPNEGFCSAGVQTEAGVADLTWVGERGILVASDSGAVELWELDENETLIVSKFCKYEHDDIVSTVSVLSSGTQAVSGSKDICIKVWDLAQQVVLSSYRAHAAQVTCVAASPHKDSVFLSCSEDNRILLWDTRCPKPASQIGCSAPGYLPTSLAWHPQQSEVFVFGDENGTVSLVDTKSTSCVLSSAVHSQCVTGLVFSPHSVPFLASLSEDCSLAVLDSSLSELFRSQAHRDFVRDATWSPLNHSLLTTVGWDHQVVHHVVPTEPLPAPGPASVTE

For the compound `O=C(Nc1ccon1)c1csc(Nc2ccc(Cl)cc2)n1` [Example 19, 2-[(4-Chlorophenyl)amino]-N-(1,2-oxazol-3-yl)-1,3-thiazole-4-carboxamide], the IC50 in experiment [1] is 0.775 µM; in experiment [2] it was at least 30 µM.

For `Cc1cc(NC(=O)c2csc(Nc3ccc(Cl)cc3)n2)no1` [Example 20, 2-[(4-Chlorophenyl)amino]-N-(5-methyl-1,2-oxazol-3-yl)-1,3-thiazole-4-carboxamide], the IC50 was 0.971 µM in experiment [1] and at least 30 µM in experiment [2].

`CC(C)(C)c1cc(NC(=O)c2csc(Nc3ccc(Cl)c(Cl)c3)n2)no1` [Example 21, N-(5-tert-Butyl-1,2-oxazol-3-yl)-2-[(3,4-dichlorophenyl)amino]-1,3-thiazole-4-carboxamide]: the IC50 was determined as 1.39 µM in experiment [1] and 26.7 µM in experiment [2].

For `CCN(CC)CCOc1cc(NC(=O)c2csc(Nc3ccccc3)n2)ccc1-c1ccc(C)cc1` [Example 22, N-{2-[2-(Diethylamino)ethoxy]-4′-methylbiphenyl-4-yl}-2-(phenylamino)-1,3-thiazole-4-carboxamide], the IC50 in experiment [1] was determined as 0.941 µM; in experiment [2], 23.4 µM.

Turning to `Cn1ccc(NC(=O)c2csc(Nc3ccccc3)n2)n1` [Example 23, N-(1-Methyl-1H-pyrazol-3-yl)-2-(phenylamino)-1,3-thiazole-4-carboxamide], the IC50 in experiment [1] came out at 1.61 µM; in experiment [2] it was 23.2 µM.
